IC50 data for 30 compounds are collected here from patent US20220041583A1, “IMMUNOMODULATORS, COMPOSITIONS AND METHODS THERE OF” (BETTA PHARMACEUTICALS CO., LTD, priority 2018, published 2022).

The target in the experiment is T1, PD-1/PD-L1 (Homo sapiens, UniProt Q9NZQ7).
T1 construct: Recombinant human PD-L1 protein (19-238) with a His-tag at the C-terminus; purchased AcroBiosystems PD1-H5229 (PD-L1); PD1-H5257 (PD-1)
Put plainly: PD-1/PD-L1 homogenous time-resolved fluorescence (HTRF) binding assay. How it is done: Resolved Fluorescence (HTRF) Binding Assay
The assays were conducted in a standard black 384-well polystyrene plate with a final volume of 20 μL. Inhibitors were first serially diluted in DMSO and then added to the plate wells before the addition of other reaction components. The final concentration of DMSO in the assay was 1%. The assays were carried out at 25° C. in the PBS buffer (pH 7.4) with 0.05% Tween-20 and 0.1% BSA. Recombinant human PD-L1 protein (19-238) with a His-tag at the C-terminus was purchased from AcroBiosy stems (PD1-H5229). Recombinant human PD-1 protein (25-167) with Fc tag at the C-terminus was also purchased from AcroBiosystems (PD1-H5257). PD-L1 and PD-1 proteins were diluted in the assay buffer and 10 μL was added to the plate well. Plates were centrifuged and proteins were preincubated with inhibitors for 40 min. The incubation was followed by the addition of 10 μL of HTRF detection buffer supplemented with Europium cryptate-labeled anti-human IgG (PerkinElmer-AD0212) specific for Fc and anti-His antibody conjugated to SureLight®-Allophycocyanin (APC, PerkinElmer-AD0059H). After centrifugation, the plate was incubated at 25° C. for 60 min. Before reading on a PHERAstar FS plate reader (665 nm/620 nm ratio). Final concentrations in the assay were […] PD1, 10 nM PD-L1, 1 nM europium anti-human IgG and 20 nM anti-His-Allophycocyanin. IC50 determination was performed by fitting the curve of percent control activity versus the log of the inhibitor concentration using the GraphPad Prism 5.0 software.

Structures can show the parent of a compound that is named as a salt.

T1 sequence (Q9NZQ7 19-238): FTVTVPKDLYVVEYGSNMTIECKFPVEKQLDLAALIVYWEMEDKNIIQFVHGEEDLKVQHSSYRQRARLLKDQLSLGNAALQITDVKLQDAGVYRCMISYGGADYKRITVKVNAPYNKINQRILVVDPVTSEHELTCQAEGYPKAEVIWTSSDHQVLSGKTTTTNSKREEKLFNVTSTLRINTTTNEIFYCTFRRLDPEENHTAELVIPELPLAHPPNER

`Cc1c(-c2ccccc2)cccc1-c1nc2cc(CN3COC[C@H]3C(=O)O)c(OC(F)F)cc2o1` [Example 53, (S)-3-((6-(difluoromethoxy)-2-(2-methyl-[1,1′-biphenyl]-3-yl)benzo[d]oxazol-5-yl)methyl)oxazolidine-4-carboxylic acid] displayed a half-inhibitory concentration (IC50) (Table 6, class symbols) of 10 to 100 nM.
For `CSc1cc2oc(-c3cccc(-c4ccccc4)c3C)nc2cc1CN1CCCCC1CO` (stereo not drawn) [Example 8, (1-((2-(2-methyl-[1,1′-biphenyl]-3-yl)-6-(methylthio)benzo[d]oxazol-5-yl)methyl)piperidin-2-yl)methanol], for the setting “Table 6, class symbols”, the IC50 was 10 to 100 nM.
Same read-out and setting: in the case of `Cc1cc2oc(-c3cccc(-c4ccccc4)c3C#N)nc2cc1CN1CCC[C@H]1C(=O)O` [Example 18, ((2-(2-cyano-[1,1′-biphenyl]-3-yl)-6-methylbenzo[d]oxazol-5-yl)methyl)-L-proline] it was 0.1 to 10 nM.
For the compound `Cc1c(-c2ccccc2)cccc1-c1nc2cc(CN3CCCC3(C)C(=O)O)c(OC(F)F)cc2o1` (stereo not drawn) [Example 46, 1-((6-(difluoromethoxy)-2-(2-methyl-[1,1′-biphenyl]-3-yl)benzo[d]oxazol-5-yl)methyl)-2-methylpyrrolidine-2-carboxylic acid], the half-maximal inhibitory concentration (IC50) (Table 6, class symbols) is 0.1 to 10 nM.
In turn, `Cc1c(-c2ccccc2)cccc1-c1nc2cc(CN3CC[C@H](O)C3)c(F)cc2o1` [Example 23, (S)-1-((6-fluoro-2-(2-methyl-[1,1′-biphenyl]-3-yl)benzo[d]oxazol-5-yl)methyl)pyrrolidin-3-ol] displayed a half-maximal inhibitory concentration (IC50) (Table 6, class symbols) of 10 to 100 nM.
Under “Table 6, class symbols”, `CSc1cc2oc(-c3cccc(-c4ccccc4)c3C#N)nc2cc1CN1CCC[C@H]1C(=O)O` [Example 14, ((2-(2-cyano-[1,1′-biphenyl]-3-yl)-6-(methylthio)benzo[d]oxazol-5-yl)methyl)-L-proline] showed a half-maximal inhibitory concentration (IC50) of 0.1 to 10 nM.
As to `Cc1c(-c2ccccc2)cccc1-c1nc2cc(CN3CCCCC3C(=O)O)n3ncnc3c2o1` (stereo not drawn) [Example 69, 1-((8-(2-methyl-[1,1′-biphenyl]-3-yl)oxazolo[5,4-c][1,2,4]triazolo[1,5-a]pyridin-5-yl)methyl)piperidine-2-carboxylic acid], the IC50 (Table 6, class symbols) lay in the range of 100 to 1000 nM.
`Cc1c(-c2ccccc2)cccc1-c1nc2cc(CN[C@@H](C)C(=O)O)c(OC(F)F)cc2o1` [Example 33, ((6-(difluoromethoxy)-2-(2-methyl-[1,1′-biphenyl]-3-yl)benzo[d]oxazol-5-yl)methyl)-L-alanine] gave an IC50 (Table 6, class symbols) of 0.1 to 10 nM.
In turn, `Cc1c(-c2ccccc2)cccc1-c1nc2cc(CN3CCC[C@H]3C(=O)O)c(F)cc2o1` [Example 24, ((6-fluoro-2-(2-methyl-[1,1′-biphenyl]-3-yl)benzo[d]oxazol-5-yl)methyl)-L-proline] gave an IC50 (Table 6, numeric values) of 7.2 nM.
Where the note is “Table 6, class symbols”, `N#Cc1c(-c2ccccc2)cccc1-c1nc2cc(CN3CCC[C@H]3C(=O)O)c(OC(F)F)cc2o1` [Example 44, ((2-(2-cyano-[1,1′-biphenyl]-3-yl)-6-(difluoromethoxy)benzo[d]oxazol-5-yl)methyl)-L-proline] registered a concentration for half-maximal inhibition (IC50) of 0.1 to 10 nM.
In the case of `Cc1c(-c2ccccc2)cccc1-c1nc2cc(CN3CCCCC3C(=O)O)c(OCC(F)F)cc2o1` (stereo not drawn) [Example 55, 1-((6-(2,2-difluoroethoxy)-2-(2-methyl-[1,1′-biphenyl]-3-yl)benzo[d]oxazol-5-yl)methyl)piperidine-2-carboxylic acid], where the note is “Table 6, class symbols”, the IC50 was in the range of 10 to 100 nM.
`CSc1cc2oc(-c3cccc(-c4ccccc4)c3C)nc2cc1CN1CCC[C@@H]1C(=O)O` [Example 7, ((2-(2-methyl-[1,1′-biphenyl]-3-yl)-6-(methylthio)benzo[d]oxazol-5-yl)methyl)-D-proline] had an IC50 (Table 6, class symbols) of 0.1 to 10 nM.
Consider `CSc1cc2oc(-c3cccc(-c4ccccc4)c3C)nc2cc1CN1CCCC1(C)C(=O)O` (stereo not drawn) [Example 16, 2-methyl-1-((2-(2-methyl-[1,1′-biphenyl]-3-yl)-6-(methylthio)benzo[d]oxazol-5-yl)methyl)pyrrolidine-2-carboxylic acid], for which the half-maximal inhibitory concentration (IC50) (Table 6, class symbols) was 0.1 to 10 nM.
For the compound `CSc1cc2oc(-c3cccc(-c4ccccc4)c3C)nc2cc1CN[C@H](C(=O)O)[C@H](C)O` [Example 4, ((2-(2-methyl-[1,1′-biphenyl]-3-yl)-6-(methylthio)benzo[d]oxazol-5-yl)methyl)-L-allothreonine], the IC50 (Table 6, class symbols) was in the range of 0.1 to 10 nM.
On to `Cc1c(-c2ccccc2)cccc1-c1nc2cc(CN[C@@H](Cc3ccc(O)cc3)C(=O)O)c(OC(F)F)cc2o1` [Example 32, ((6-(difluoromethoxy)-2-(2-methyl-[1,1′-biphenyl]-3-yl)benzo[d]oxazol-5-yl)methyl)-L-tyrosine hydrochloride], for which, under “Table 6, class symbols”, the IC50 lay within 0.1 to 10 nM.
The compound `Cc1c(-c2ccccc2)cccc1-c1nc2cc(CN3CCCC[C@H]3C(=O)O)c(F)cc2o1` [Example 25, (S)-1-((6-fluoro-2-(2-methyl-[1,1′-biphenyl]-3-yl)benzo[d]oxazol-5-yl)methyl)piperidine-2-carboxylic acid] gave an IC50 (Table 6, numeric values) of 7.4 nM.
In turn, `Cc1c(-c2ccccc2)cccc1-c1nc2cc(CN3CCC[C@H]3C(=O)O)c(OS(C)(=O)=O)cc2o1` [Example 64, ((2-(2-methyl-[1,1′-biphenyl]-3-yl)-6-((methylsulfonyl)oxy)benzo[d]oxazol-5-yl)methyl)-L-proline] gave a half-maximal inhibitory concentration (IC50) (Table 6, class symbols) of 0.1 to 10 nM.
`Cc1c(-c2ccccc2)cccc1-c1nc2cc(CN[C@H](C)C(=O)O)c(OC(F)F)cc2o1` [Example 34, ((6-(difluoromethoxy)-2-(2-methyl-[1,1′-biphenyl]-3-yl)benzo[d]oxazol-5-yl)methyl)-D-alanine] registered an IC50 (Table 6, class symbols) of 10 to 100 nM.
As for `CC[C@H](NCc1cc2nc(-c3cccc(-c4ccccc4)c3C)oc2cc1OC(F)F)C(=O)O` [Example 40, (S)-2-(((6-(difluoromethoxy)-2-(2-methyl-[1,1′-biphenyl]-3-yl)benzo[d]oxazol-5-yl)methyl)amino)butanoic acid], under “Table 6, class symbols”, the IC50 lay within 0.1 to 10 nM.
Take `Cc1c(-c2ccccc2)cccc1-c1nc2cc(CN3CCCCC3C(=O)O)c(C#N)cc2o1` (stereo not drawn) [Example 26, 1-((6-cyano-2-(2-methyl-[1,1′-biphenyl]-3-yl)benzo[d]oxazol-5-yl)methyl)piperidine-2-carboxylic acid]: under “Table 6, class symbols”, the half-maximal inhibitory concentration (IC50) is 0.1 to 10 nM.
Under “Table 6, numeric values”, `Cc1c(-c2ccccc2)cccc1-c1nc2cc(CN3CCC[C@H]3C(=O)O)c([S+](C)[O-])cc2o1` (stereo partly drawn) [Example 65, ((2-(2-methyl-[1,1′-biphenyl]-3-yl)-6-(methylsulfinyl)benzo[d]oxazol-5-yl)methyl)-L-proline] had an IC50 of 5 nM.
With `N#Cc1c(-c2ccccc2)cccc1-c1nc2cc(CN3CCOC[C@H]3C(=O)O)c(OCC(F)(F)F)cc2o1` [Example 57, (S)-4-((2-(2-cyano-[1,1′-biphenyl]-3-yl)-6-(2,2,2-trifluoroethoxy)benzo[d]oxazol-5-yl)methyl)morpholine-3-carboxylic acid], the IC50 (Table 6, class symbols) was in the range of 10 to 100 nM.
Turning to `CSc1cc2oc(-c3cccc(-c4ccccc4)c3C)nc2cc1CN1CCCC[C@H]1C(=O)O` [Example 1, (S)-1-((2-(2-methyl-[1,1′-biphenyl]-3-yl)-6-(methylthio)benzo[d]oxazol-5-yl)methyl)piperidine-2-carboxylic acid], under “Table 6, numeric values”, the IC50 stood at 1.9 nM.
`Cc1c(-c2ccccc2)cccc1-c1nc2cc(CN3CCC[C@H]3C(=O)O)c(O)cc2o1` [Example 21, ((6-hydroxy-2-(2-methyl-[1,1′-biphenyl]-3-yl)benzo[d]oxazol-5-yl)methyl)-L-proline] had an IC50 (Table 6, class symbols) of 10 to 100 nM.
Under “Table 6, class symbols”, `Cc1c(-c2ccccc2)cccc1-c1nc2cc3c(cc2o1)OCCN(CC(=O)O)C3` [Example 71, 2-(2-(2-methyl-[1,1′-biphenyl]-3-yl)-6,7-dihydrooxazolo[5′,4′:4,5]benzo[1,2-f][1,4]oxazepin-8(9H)-yl)acetic acid] gave an IC50 of 100 to 1000 nM.
With `Cc1c(-c2ccccc2)cccc1-c1nc2cc(CN3CCCCC3CO)c(OC(F)F)cc2o1` (stereo not drawn) [Example 38, (1-((6-(difluoromethoxy)-2-(2-methyl-[1,1′-biphenyl]-3-yl)benzo[d]oxazol-5-yl)methyl)piperidin-2-yl)methanol], the IC50 (Table 6, class symbols) was in the range of 0.1 to 10 nM.
`N#Cc1ccccc1-c1cccc(-c2nc3cc(CN4CCC[C@H]4C(=O)O)c(OC(F)F)cc3o2)c1C#N` [Example 45, ((2-(2,2′-dicyano-[1,1′-biphenyl]-3-yl)-6-(difluoromethoxy)benzo[d]oxazol-5-yl)methyl)-L-proline] registered a concentration for half-maximal inhibition (IC50) (Table 6, class symbols) of 10 to 100 nM.
Compound `Cc1c(-c2ccccc2)cccc1-c1nc2cc(CN[C@@H](CO)C(=O)O)c(OC(F)F)cc2o1` [Example 43, ((6-(difluoromethoxy)-2-(2-methyl-[1,1′-biphenyl]-3-yl)benzo[d]oxazol-5-yl)methyl)-L-serine] gave an IC50 (Table 6, numeric values) of 1.8 nM.
On to `Cc1c(-c2ccccc2)cccc1-c1nc2cc(CN[C@@H](C)C(=O)O)c(OCC(F)(F)F)cc2o1` [Example 59, ((2-(2-methyl-[1,1′-biphenyl]-3-yl)-6-(2,2,2-trifluoroethoxy)benzo[d]oxazol-5-yl)methyl)-L-alanine], for which, under “Table 6, class symbols”, the concentration for half-maximal inhibition (IC50) fell in the range of 10 to 100 nM.
The compound `CSc1cc2oc(-c3cccc(-c4ccccc4)c3C)nc2cc1CN[C@H](CO)C(=O)O` [Example 12, ((2-(2-methyl-[1,1′-biphenyl]-3-yl)-6-(methylthio)benzo[d]oxazol-5-yl)methyl)-D-serine] showed an IC50 (Table 6, class symbols) of 0.1 to 10 nM.
